Experimental data: article PMC4383003, “Transfer hydrogenation catalysis in cells as a new approach to anticancer drug design” (Nature Communications, 2015)

System: MRC5 human fetal lung fibroblasts
Experiment: In vitro growth inhibition assay (SRB), MRC5
Type: cell-based
Description: A2780 human ovarian carcinoma and MRC5 human fetal lung fibroblasts were obtained from the European Collection of Cell Cultures. Both cell lines were grown in Roswell Park Memorial Institute medium (RPMI-1640) supplemented with 10% of fetal calf serum, 1% of 2 mM glutamine and 1% penicillin/streptomycin. All cells were grown as adherent monolayers at 310 K in a 5% CO2-humidified atmosphere and passaged at ca. 70–80% confluency.
The antiproliferative activity of complexes 1–8 was determined in A2780 ovarian cancer cells and MRC5 fibroblasts. Briefly, 96-well plates were used to seed 5,000 cells per well. The plates were left to pre-incubate with drug-free medium at 310 K for 48 h before adding different concentrations of the compounds to be tested. A drug exposure period of 24 h was allowed. After this, supernatants were removed by suction and each well was washed with PBS. […]
Supplementary Table 10: Antiproliferative activity of complex 2 in A2780 ovarian cancer cells and normal MRC5 human fetal lung fibroblasts, when co-administered with different concentrations of sodium formate (0 and 2 mM). All the experiments were performed as duplicates of triplicates in independent experiments and the error bars were calculated as the standard deviation from the mean. […]

Cc1ccc(C(C)C)cc1.Cc1ccc(S(=O)(=O)[N-]CCN)cc1.[Cl-].[Ru+2] [Complex 2, [(p-cym)Ru(TsEn)Cl]]
IC50 (MRC5, formate 0 mM): 48.5 ± 0.4 µM
selectivity factor (ratio MRC5 fibroblasts / A2780, no formate): 3.6±0.2
